14 compounds from patent US9095136B2, “2-IODO imidazole-derivatives” (BAYER INTELLECTUAL PROPERTY GMBH, priority 2011, dated 2015) can be followed below.

Read-outs that look alike come from different tables or passages of the source. Marks after values point to notes of the source that are not given here.

In data set [1] the test system is Puccinia recondita. Put plainly: Example T: preventative in vivo test with Puccinia recondita (brown rust on wheat). Conditions: 500 ppm, evaluation 10 days after inoculation. The method, then:
The active compounds tested are prepared by homogenization in a mixture of acetone/Tween/DMSO and then diluted with water to the desired active compound concentration. Wheat plants (cultivar “Scipion”), sown in a 50/50 peat/pozzolana soil substrate and cultivated at 22° C. (12 h)/20° C. (12 h), are treated at the 1-leaf stage (height 10 cm) by spraying with the active compound, prepared as above. As a control, plants are treated with the mixture of acetone/Tween/DMSO/water without the active compound. After 24 hours, the plants are inoculated by spraying the leaves with an aqueous suspension of Puccinia recondita spores.

Data set [2] has as its system Sphaerotheca fuliginea. Put plainly: Example V: preventative in vivo test with Sphaerotheca fuliginea (powdery mildew on cucumber). Conditions: 500 ppm, evaluation 12 days after inoculation. The method, then:
The active compounds tested are prepared by homogenization in a mixture of acetone/Tween/DMSO and then diluted with water to the desired active compound concentration. Cucumber plants (cultivar “Vert petit de Paris”), sown in a 50/50 peat/pozzolana soil substrate and cultivated at 24° C., are treated at the Z11 cotyledon stage by spraying with the active compound, prepared as above. As a control, plants are treated with the mixture of acetone/Tween/DMSO/water without the active compound. After 24 hours, the plants are inoculated by spraying the leaves with an aqueous suspension of Sphaerotheca fuliginea spores. The inoculated cucumber plants are incubated at about 20° C./25° C. and a relative atmospheric humidity of 60/70%.

For data set [3], the system named is Septoria tritici. Put plainly: Example U: preventative in vivo test with Septoria tritici (leaf blotch disease on wheat). Conditions: 500 ppm, evaluation 21 to 28 days after inoculation. The method, then: The active compounds tested are prepared by homogenization in a mixture of acetone/Tween/DMSO and then diluted with water to the desired active compound concentration. Wheat plants (cultivar “Scipion”), sown in a 50/50 peat/pozzolana soil substrate and cultivated at 22° C. (12 h)/20° C. (12 h), are treated at the 1-leaf stage (height 10 cm) by spraying with the active compound, prepared as above. As a control, plants are treated with the mixture of acetone/Tween/DMSO/water without the active compound. After 24 hours, the plants are inoculated by spraying the leaves with an aqueous suspension of cryogenically preserved Septoria tritici spores.

Data set [4] deals with Uromyces appendiculatus. Put plainly: Example W: preventative in vivo test with Uromyces appendiculatus (bean rust). The following applies: 500 ppm, evaluation 10 days after inoculation. The method, then: The active compounds tested are prepared by homogenization in a mixture of acetone/Tween/DMSO and then diluted with water to the desired active compound concentration. Bean plants (cultivar “Saxa”), sown in a 50/50 peat/pozzolana soil substrate and cultivated at 24° C., are treated at the 2-leaf stage (height 9 cm) by spraying with the active compound, prepared as above. As a control, plants are treated with the mixture of acetone/Tween/DMSO/water without the active compound. After 24 hours, the plants are inoculated by spraying the leaves with an aqueous suspension of Uromyces appendiculatus spores.

Data set [5] relates to Phytophthora infestans. Format: in vivo. Conditions: tomato, preventative, 500 ppm, evaluation 5 days after inoculation.
A short description of data set [6]: log P by HPLC on reversed-phase columns (EEC directive 79/831 Annex V.A8). The data set is classed as physicochemical. The method, then: The log P values were measured according to EEC directive 79/831 Annex V.A8 by HPLC (High Performance Liquid Chromatography) on reversed-phase columns, using the methods below: […] Calibration was carried out using unbranched alkan-2-ones (having from 3 to 16 carbon atoms) with known log P values (the log P values were determined by the retention times using linear interpolation between two successive alkanones). The lambda maX values were determined in the maxima of the chromatographic signals using the UV spectra from 200 nm to 400 nm.

For data set [7], the system named is Sphaerotheca fuliginea. The experiment in a line: Example B: Sphaerotheca test (cucumber)/protective. The data set is classed as in vivo. The following applies: protective, 500 ppm, evaluation 7 days after inoculation. The method, then:
Solvent: 49 parts by weight of N,N-dimethylformamide Emulsifier: 1 part by weight of alkylaryl polyglycol ether To produce a suitable preparation of active compound, 1 part by weight of active compound is mixed with the stated amounts of solvent and emulsifier, and the concentrate is diluted with water to the desired concentration. To test for protective activity, young cucumber plants are sprayed with the preparation of active compound at the stated application rate. 1 day after the treatment, the plants are inoculated with a spore suspension of Sphaerotheca fuliginea. The plants are then placed in a greenhouse at 70% relative air humidity and a temperature of 23° C.

Data set [8] has as its system Pyricularia oryzae. Format: in vivo. The following applies: rice, protective, 500 ppm, evaluation 7 days after inoculation.
The subject of data set [9] is Septoria tritici. Put plainly: Example I: Septoria tritici test (wheat)/protective. Format: in vivo. Conditions: protective, 500 ppm, evaluation 21 days after inoculation. The method, then: Solvent: 49 parts by weight of N,N-dimethylacetamide Emulsifier: 1 part by weight of alkylaryl polyglycol ether To produce a suitable preparation of active compound, 1 part by weight of active compound is mixed with the stated amounts of solvent and emulsifier, and the concentrate is diluted with water to the desired concentration. To test for protective activity, young plants are sprayed with the preparation of active compound at the stated application rate. After the spray coating has dried on, the plants are sprayed with a spore suspension of Septoria tritici.

The test system of data set [10] is Uromyces appendiculatus. Put plainly: Example E: Uromyces test (bean)/protective. Format: in vivo. Conditions: protective, 10 ppm, evaluation 10 days after inoculation. The method, then: Solvents: 24.5 parts by weight of acetone • 24.5 parts by weight of dimethylacetamide Emulsifier: 1 part by weight of alkylaryl polyglycol ether To produce a suitable preparation of active compound, 1 part by weight of active compound is mixed with the stated amounts of solvent and emulsifier, and the concentrate is diluted with water to the desired concentration. To test for protective activity, young plants are sprayed with the preparation of active compound at the stated application rate. […] The plants are then placed in a greenhouse at about 21° C. and a relative atmospheric humidity of about 90%.

Consider `Fc1cc(Cl)ccc1C1(Cn2ccnc2I)OC1c1ccccc1Cl` (mixture of isomers) [Example 9], for which the Efficacy % is reported as 86% in data set [1], 100% in data set [2], 100% in data set [3] and 93% in data set [4].

Consider `Fc1ccc(C2(Cn3ccnc3I)OC2c2ccccc2Cl)c(Cl)c1` (mixture of isomers) [Example 15], for which the Efficacy % in [1] stood at 100%; in [2], 98%; in data set [3], 86%; in data set [4], 100%.

`Fc1ccc([C@]2(Cn3ccnc3I)O[C@@H]2c2ccccc2Cl)c(F)c1` (relative stereo) [Example 13, rel-1-{[(2R,3R)-3-(2-chlorophenyl)-2-(2,4-difluorophenyl)oxiran-2-yl]methyl}-2-iodo-1H-imidazole] showed an Efficacy % in [5] of 98%. Besides, the chromatographic logP in [6] (pH 2.7, log P(HCOOH)) is 2.86; in data set [6] (pH 2.7, logP) it was 2.86.

Take `CC(=Cc1ccccc1Cl)c1ccc(F)cc1F` [1-[1-(2-chlorophenyl)prop-1-en-2-yl]-2,4-difluorobenzene]: the chromatographic logP in data set [6] (pH 2.7, HPLC/MS, major diastereoisomer of the mixture, read-out: log P(HCOOH)) was 5.05; in data set [6] (pH 2.7, HPLC/MS, minor diastereoisomer of the mixture, read-out: log P(HCOOH)), 5.34.

`Fc1ccc(C(=Cc2ccccc2Cl)CBr)c(F)c1` [1-[3-bromo-1-(2-chlorophenyl)prop-1-en-2-yl]-2,4-difluorobenzene]: the “log P(HCOOH)” value in data set [6] (pH 2.7) stood at 5.25. The chromatographic logP in [6] (pH 2.7, log P(HCOOH)) is 4.8.

Consider `Fc1ccc(C2(CBr)OC2c2ccccc2Cl)c(F)c1` (stereo not drawn) [2-(bromomethyl)-3-(2-chlorophenyl)-2-(2,4-difluorophenyl)oxirane], for which the “log P(HCOOH)” value in [6] (pH 2.7) turned out to be 5.00. This compound returned a chromatographic logP in data set [6] (pH 2.7, log P(HCOOH)) of 4.61.

As usually defined, the logP is the decadic logarithm of the partition coefficient of the neutral form, usually between octanol and water. On to `OC(Cn1ccnc1I)(c1ccc(Cl)cc1)C1(Oc2ccc(F)cc2)CC1` (stereo not drawn) [Example 3], for which the logP in data set [6] (pH 2.7) came to 2.55; in [6] (pH 7.8) it was 3.55.

As to `OC(Cn1ccnc1I)(c1ccc(F)cc1F)C1(Oc2ccc(F)cc2)CC1` (stereo not drawn) [Example 5], the Eff. % is given as 88% in data set [7] and 95% in [8].

With `Fc1ccc(C2(Cn3ccnc3I)OC2c2ccccc2Cl)cc1` (stereo not drawn) [Example 7], the logP in [6] (pH 2.7) was 2.73^[a].

Take `Fc1cc(Cl)ccc1C1(Cn2ccnc2I)OC1c1ccccc1Cl` (stereo not drawn) [Example 10]: in [6] (pH 2.7), the logP was 3.23^[a]. Further, the values for the Efficacy % in data set [2] and in data set [3] were 98% and 96%, respectively.

In the case of `Fc1ccc(C2(Cn3ccnc3I)OC2c2ccccc2Cl)c(F)c1` (stereo not drawn) [Example 12, 1-{[3-(2-chlorophenyl)-2-(2,4-difluorophenyl)oxiran-2-yl]methyl}-2-iodo-1H-imidazole], the Efficacy % in data set [5] came to 88%; in data set [1] it was 93%; in data set [2] it was 100%; in [3] it was 100%; in [4] it was 99%. In addition, the “log P(HCOOH)” value in [6] (pH 2.7) amounted to 3.31. Further, the chromatographic logP in data set [6] (pH 2.7, log P(HCOOH)) is 2.92; in [6] (pH 2.7, logP), 2.92. In addition, the Eff. % in data set [9] is given as 71%.

`Fc1ccc(C2(Cn3ccnc3I)OC2c2ccccc2Cl)c(Cl)c1` (stereo not drawn) [Example 16]: the logP in data set [6] (pH 2.7) was 3.13^[a].

With `Fc1ccc(C2(Cn3ccnc3I)OC2c2ccccc2Cl)c(Cl)c1` (stereo not drawn) [Example 17], the Efficacy % in [1] came to 100%; in [2], 100%; in [3], 97%; in data set [4] it was 100%. In [6] (pH 2.7), the logP was 3.68^[a]. The compound also registered an Eff. % in [10] of 75%.

For `OC(Cc1c(Cl)cccc1I)(Cn1ccnc1I)C1(Cl)CC1` (stereo not drawn) [Example 18], the log partition coefficient (logP) in data set [6] (pH 2.7) is listed as 3.04; in [6] (pH 7.8), 4. Further, the Efficacy % in data set [2] and in data set [4] was 100% each time.
